Test results as given in ChEMBL document CHEMBL1208773, “Improving the permeability of the hydroxyethylamine BACE-1 inhibitors: structure-activity relationship of P2' substituents” (Bioorg Med Chem Lett, 2010).

Assays:
[1] = Lipophilicity, log P of the compound; format: physicochemical; conditions: octanol/water
[2] = Dissociation constant, pKa of the compound; format: physicochemical

Row | Structure (SMILES) | logP [1] | pKa [2]
1 | CC(=O)N[C@@H](Cc1cc(F)cc(F)c1)[C@H](O)CNC1(c2cccc(C3CCOC3)c2)CCCCC1 (some centres undefined) | 4 | –
2 | CC(=O)N[C@@H](Cc1cc(F)cc(F)c1)[C@H](O)CNC1(c2cccc(C3CCCO3)c2)CCCCC1 (some centres undefined) | 4 | –
3 | CC(=O)N[C@@H](Cc1cc(F)cc(F)c1)[C@H](O)CNC1(c2cccc(C(C)(C)C)c2)CCCCC1 | 4.8 | 8.1
